Patent US20250066446A1, “FUSION PROTEINS FOR THE TREATMENT OF CARDIOMETABOLIC DISEASES” (Shattuck Labs, Inc., priority 2022, published 2025)
Entries after “also recorded” stand apart in the source; their conditions may differ. Where no end group is shown, it is not given here.

What was measured:
[1] = human NASH patients; cited from earlier work
[2] = target: T1, GlPR (Rattus norvegicus, UniProt P43219); assay: pGloSensor-22F cAMP biosensor assay in rat INS-1 cells (GlPR agonism and antagonism); type: cell-based; parameters: dose or concentration left out as unconfirmed; conditions: increasing doses mixed with GlP(Ag)
T1 construct: endogenous in cells; host or cells: rat INS-1 insulinoma cells carrying a cAMP reporter (a cAMP-luciferase reporter in A2, the pGloSensor-22F biosensor in A4)
T1 sequence (P43219 19-455): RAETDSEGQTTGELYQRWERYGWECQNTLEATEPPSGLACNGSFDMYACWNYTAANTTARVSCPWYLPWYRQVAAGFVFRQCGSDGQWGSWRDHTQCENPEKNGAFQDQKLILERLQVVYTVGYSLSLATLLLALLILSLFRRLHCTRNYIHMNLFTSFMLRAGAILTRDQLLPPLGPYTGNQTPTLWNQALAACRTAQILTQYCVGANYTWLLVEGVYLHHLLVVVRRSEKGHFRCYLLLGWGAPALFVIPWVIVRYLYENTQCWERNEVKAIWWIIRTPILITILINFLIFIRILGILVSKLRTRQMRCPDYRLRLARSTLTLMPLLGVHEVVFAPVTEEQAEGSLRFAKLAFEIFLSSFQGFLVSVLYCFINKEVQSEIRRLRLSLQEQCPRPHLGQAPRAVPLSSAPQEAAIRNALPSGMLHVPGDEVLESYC
Method: Briefly, rat INS-1 cells having pGloSensor-22F (Promega) were constructed and used to evaluate GlPR agonism and antagonism. […] The conformational change leads to the activation of the luciferase enzyme, thereby allowing detection of activation of GlPR, which produces cAMP upon activation.
Immediately after the addition, the luminescence of the cells was measured, normalized using the basal luminescence and plotted.

[3] = target: T2, GlP receptor (GlPR) (Rattus norvegicus, UniProt P43219); assay: cAMP-Glo assay in rat insulinoma INS-1 cells harboring a cAMP-luciferase reporter gene; type: cell-based; conditions: 1 hour glucose, then 2 hour incubation with increasing amounts
T2 construct: endogenous in cells; host or cells: rat INS-1 insulinoma cells carrying a cAMP reporter (a cAMP-luciferase reporter in A2, the pGloSensor-22F biosensor in A4)
T2 sequence (P43219 19-455): T1 sequence (P43219 19-455)
Text: Rat insulinoma INS-1 cells harboring a cAMP-luciferase reporter gene were used to study the activation of GlPR. Without wishing to be bound by theory, the activation of GlPR leads to temporary depletion of ATP because of consumption of ATP in cyclization reaction to produce cAMP as well as by phosphorylation by protein kinase A of its substrate. Without wishing to be bound by theory, the temporary depletion of ATP leads to an inhibition of luciferase activity, which needs ATP as a substrate.

[4] = target: T3, glucose-dependent insulinotropic polypeptide receptor (GlPR) (Homo sapiens, UniProt P48546); assay: GeneBLAzer GlPR-CRE-bla HEK293T cell-based reporter assay; conditions: 5 hours incubation; for 460/530 ratio, indicative of the activation of GlPR: increasing amounts
T3 construct: host or cells: GeneBLAzer GIPR-CRE-bla HEK293T cells
T3 sequence (P48546 22-466): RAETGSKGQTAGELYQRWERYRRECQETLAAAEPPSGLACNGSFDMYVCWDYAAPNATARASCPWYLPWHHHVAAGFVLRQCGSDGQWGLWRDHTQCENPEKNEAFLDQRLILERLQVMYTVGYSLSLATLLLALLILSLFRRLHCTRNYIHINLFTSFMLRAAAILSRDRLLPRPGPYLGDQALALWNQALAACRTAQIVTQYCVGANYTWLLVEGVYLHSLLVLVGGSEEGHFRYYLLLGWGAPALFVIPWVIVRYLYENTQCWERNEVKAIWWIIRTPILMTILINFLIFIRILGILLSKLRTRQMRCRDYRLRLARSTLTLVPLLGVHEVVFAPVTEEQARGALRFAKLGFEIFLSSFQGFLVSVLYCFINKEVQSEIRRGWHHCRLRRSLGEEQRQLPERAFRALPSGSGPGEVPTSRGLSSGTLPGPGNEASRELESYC
Method: This assay is diagrammatically represented in FIG. 3A. […] In the presence of the β-lactamase LiveBLAzer™ substrate, cells expressing β-lactamase fluoresce blue (460 nm), while those not expressing β-lactamase fluoresce green (530 nm); higher 460/530 ratio indicates the activation of GlPR.
Briefly, GeneBLAzer® GlPR-CRE-bla HEK293T cells were added to wells of black-wall assay plates. […] To each well, LiverBLAzer-FRET B/G substrate mixture was added. The plate was covered with plate sealer and incubated at room temperature for 2 hours in the dark. Fluorescence emission was measured on SpectraMax plate reader at 460 nm and 530 nm with excitation set to 409 nm. After subtraction of background, average value at 460 nm (blue color) was divided by average value at 530 nm (green color) to obtain the 460/530 ratio.

[5] = Glucose tolerance test (GTT) model in HFD-fed mice; type: in vivo, mice (Male C57BL/6); conditions: i.v. treatment, 18 hours fast, 2 g/kg glucose, 15 min to 2 hours
Method: Cages were changed once, then changed once a week.
The mice administered the above treatment by i.v. injections. The mice were then fasted for 18 hours and administered a dose of 2 g/kg glucose by i.v. injections. Blood samples were drawn by tail clip bleeding at 15, 30 and 60 minutes post dosing and cardiac bleeding was used at 2 hours after glucose injection as end-point.

[6] = Longer-term obesity model in HFD-fed mice; conditions: for blood glucose levels: Days 0, 1, 10 and 15; for blood glucose levels / average daily food intake: compared to the untreated mice; for plasma insulin levels on Day 15: FIG. 8C right panel; for liver weight / subcutaneous white adipose tissue (sWAT) weight: day 19 terminal necropsy, vs PBS control; for change in body weight: tail vein dosing Day 0, 4, 7, 10, 14, 18, weighed every 2 days; for collagen staining (fibrosis), picrosirius red liver sections / hepatocellular ballooning and steatosis, H&E liver histology: vs vehicle-treated mice
Method: Mice (Male C57BL/6) were of approximately 13 weeks of age were housed 4 mice per cage. Following 2 weeks of acclimatation, mice were introduced to 60% kcal HFD (Research Diets D12492). Cages were changed once, then changed once a week. Weekly body weights and non-fasted blood glucose were collected.
Mice were injected by tail vein with vehicle or the drugs on Day 0, Day 4, Day 7, Day 10, Day 14, and Day 18. Body weights were measured every 2 days. Change in body weight was calculated and plotted.
Cumulative food intake was measured between day 0 and 3, between day 4 and 7, between day 7 and day 11, and between day 11 and day 14, and represented as average daily food intake. For food consumption, remaining food was weighed on days 3, 8, and 15, and subtracted from the starting weight. This value was then normalized to the number of mice in the cage, and the number of days the mice had access to the food prior to weighing.
Blood glucose levels were measured on Days 0, 1, 10 and 15 and plotted.
On day 19 during terminal necropsy, liver and subcutaneous white adipose tissue were recovered weighed from treated animals.
To further analyze the changes in liver, histopathological analysis was conducted. Briefly, the liver tissue was stained with hematoxylin and eosin (H&E) and evaluated using standard techniques.

[7] = target: GlP receptor (GlPR) of rat INS-1 insulinoma cells (UniProt P43219)
[8] = target: glucose-dependent insulinotropic polypeptide receptor (GlPR) on GeneBLAzer GlPR-CRE-bla HEK293T cells (UniProt P48546); assay: cell-based or functional assay
[9] = test system: rat insulinoma INS-1 cells; assay: in vitro glucose-stimulated insulin secretion (GSIS) in INS-1 cells; type: cell-based; conditions: 1 hour glucose, then 2 hour incubation; ELISA
Text: X is a known inducer of GSIS.

For “Pegbelfermin [Pegbelfermin (BMS-986036)]”, the liver fat content [1] is listed as “reduce liver fat content”.

With “GlP(AntPro3): GlP Antagonist (amino acids 1-42, having a E3P substitution); SEQ ID NO: 97 (YAPGTFISDYSIAMDKIHQQDFVNWLLAQKGKKNDWKHNITQ)” the “inhibition of GlP(Ag)-induced activation of the cAMP-luciferase reporter gene (GlPR antagonism)” value [2] was “more potent inhibition of GlP agonist signaling than the others tested; also recorded: maximal level of a dose-dependent inhibition of GlP(Ag)-induced activation”.

With tirzepatide [reference compound] the “luciferase activity (cAMP-Glo), activation of GlPR” value [3] was “dose-dependent and saturable inhibition of luciferase with similar potency”, the “460/530 ratio, indicative of the activation of GlPR” value [4] was “dose-dependent and saturable increase in 460/530 ratio” and the “serum insulin following glucose administration” value [5] was “rapid induction of insulin”. The “serum glucose following glucose administration” value ([5]; vs PBS control) was “much smaller increase in serum glucose”, the blood glucose levels [6] was “decrease in blood glucose” and the “plasma insulin levels on Day 15” value [6] was “significant decrease in the levels of insulin”. For the same molecule, the “average daily food intake” value [6] was “decrease in food intake”, the “hepatocellular ballooning and steatosis, H&E under higher magnifications” value ([6]; compared to untreated animals) was “significant decrease in hepatocellular ballooning and steatosis” and the liver weight [6] was “livers of control mice that received only PBS were much heavier”. The “subcutaneous white adipose tissue (sWAT) weight” value [6] was “decreased”, the “change in body weight” value [6] was “progressive weight loss” and the “collagen staining (fibrosis), picrosirius red liver sections” value [6] was “decrease in collagen staining”. For the same molecule, the “hepatocellular ballooning and steatosis, H&E liver histology” value [6] was “decrease in hepatocellular ballooning and steatosis”.

In the case of dulaglutide [reference compound], the blood glucose levels [6] is reported as “decrease in blood glucose”, the “plasma insulin levels on Day 15” value [6] is reported as “significant decrease in the levels of insulin” and the “plasma insulin levels on Day 1” value ([6]; between 15 and 120 minutes after treatment) is reported as “rapid decrease in insulin levels”. For the same molecule, the “average daily food intake” value [6] was “decrease in food intake”, the liver weight [6] was “livers of control mice that received only PBS were much heavier” and the “subcutaneous white adipose tissue (sWAT) weight” value [6] was “decreased”. For the same molecule, the “change in body weight” value [6] was “progressive weight loss”, the “tolerability, clinical observations” value ([6]; tail vein dosing Day 0 to Day 18) was “well tolerated and no overt toxicities were noted” and the “collagen staining (fibrosis), picrosirius red liver sections” value [6] was “decrease in collagen staining”. For the same molecule, the “hepatocellular ballooning and steatosis, H&E liver histology” value [6] was “decrease in hepatocellular ballooning and steatosis”.

For “GlP(AntPro3NH2): GlP antagonist peptide derivative of GlP(AntPro3), NH2 form (YAPGTFISDYSIAMDKIHQQDFVNWLLAQKGKKNDWKHNITQ-NH2)”, the “inhibition of GlP(Ag)-induced activation of the cAMP-luciferase reporter gene (GlPR antagonism)” value [2] was “more potent inhibition of GlP agonist signaling than the others tested; also recorded: maximal level of a dose-dependent inhibition of GlP(Ag)-induced activation”.

In the case of “GlP(Ag)-Fc fusion protein (from UniProt P09681 52-93)”, the EC50 (read off the curve): fall of cAMP-Glo luminescence, rat INS-1 cells [7] is reported as 0.007 pM and the EC50 of GlPR activation (460/530 ratio, GeneBLAzer GlPR-CRE-bla HEK293T beta-lactamase reporter) [8] is reported as 11.8 pM.

For tirzepatide (peptide), the EC50 (read off the curve): fall of cAMP-Glo luminescence, rat INS-1 cells [7] was 0.003 pM.

B1: GlP(Ag)-Fc-FGF19: GlP fused to FGF19 via a hinge-CH2-CH3 Fc domain derived from IgG1; SEQ ID NO: 88 (protein)
chain: YAEGTFISDYSIAMDKIHQQDFVNWLLAQKGKKNDWKHNITQPCPAPEAAGGPSVFLFPPKPKDTLMISRTPEVTCVVVDVSHEDPEVKFNWYVDGVEVHNAKTKPREEQYNSTYRVVSVLTVLHQDWLNGKEYKCKVSNKALPAPIEKTISKAKGQPREPQVYTLPPSRDELTKNQVSLTCLVKGFYPSDIAVEWESNGQPENNYKTTPPVLDSDGSFFLYSKLTVDKSRWQQGNVFSCSVMHEALHNHYTQKSLSLSPGKIEGRMDRDSSPLVHYGWGDPIRLRHLYTSGPHGLSSCFLRIRADGVVDCARGQSAHSLLEIKAVALRTVAIKGVHSVRYLCMGADGKMQGLLQYSEEDCAFEEEIRPDGYNVYRSEKHRLPVSLSSAKQRQLYKNRGFLPLSHFLPMLPMVPEEPEDLRGHLESDMFSSPLETDSMDPFGLVTGLEAVRSPSFEK
With B1 the “luciferase activity (cAMP-Glo), activation of GlPR” value [3] was “dose-dependent and saturable inhibition of luciferase with similar potency”, the EC50 ([4]; 460/530 ratio, purified proteins, read-out: EC50 of GlPR activation) was 13.1 pM and the “460/530 ratio, indicative of the activation of GlPR” value [4] was “dose-dependent and saturable increase in 460/530 ratio”. The “insulin in the culture supernatant (GSIS)” value [9] was “stimulated insulin production to a similar, if not greater magnitude than dulaglutide or tirzepatide”.
